Measured values taken from patent US20120034320A1, “Skin Penetration Composition” (DOMINION RESOURCES, UNLIMITED, LLC, priority 2010, published 2012).
Counter-ions that a name gives are not always drawn.

Legend:
[1] = tested on: fibromyalgia; assay: Physician observation, Patient A: fibromyalgia; assay type: in vivo, human; settings: Relievz lotion twice daily to affected areas, pregabalin 400 mg daily, other products as previously used
[2] = tested on: sciatica and neuropathy (diabetic neuropathy); assay: Physician observation, Patient B: sciatica and diabetic neuropathy; assay type: in vivo, human; settings: lotion applied to affected areas
Source text: The patient continues to use Relievz™ lotion daily.

Row | Structure (SMILES) | relief of fibromyalgia symptoms [1] | pain and ambulation [2]
1 | CNCC[C@H](Oc1cccc2ccccc12)c1cccs1 [Cymbalta®, duloxetine HCl] | no relief | 
2 | CC(C)C[C@H](CN)CC(=O)O [pregabapentin] |  | continued pain
3 | CC(C)C[C@H](CN)CC(=O)O [pregabalin] | no relief | 
4 | NCC1(CC(=O)O)CCCCC1 [gabapentin] |  | continued pain
